System: 362531-283-R-J2-PDC complex spheroid viability
Assay: Anticancer human tumor 362531-283-R-J2-PDC patient-derived colon adenocarcinoma cell line growth inhibition [RAS]
Conditions: for IC50: curve of first compound; for viability, T/C: stronger effect = lower value
Outline: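 Agents were tested in combination matrices in half-log decrements from a top concentration at or near clinical Cmax (10 microM if undetermined). Targets were multi-cell spheroids of tumour lines plus HUVEC and MSC stromal cells.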

[1] = second compound 0.0316 µM, first compound 0.0316 µM
[2] = second compound 0.0316 µM, first compound 0.1 µM
[3] = second compound 0.0316 µM, first compound 0.316 µM
[4] = second compound 0.0316 µM, first compound 1 µM
[5] = second compound 0.0316 µM, first compound 3.16 µM
[6] = second compound 0.0316 µM, first compound 10 µM
[7] = second compound 0.1 µM, first compound 0.0316 µM
[8] = second compound 0.1 µM, first compound 0.1 µM
[9] = second compound 0.1 µM, first compound 0.316 µM
[10] = second compound 0.1 µM, first compound 1 µM
[11] = second compound 0.1 µM, first compound 3.16 µM
[12] = second compound 0.1 µM, first compound 10 µM
[13] = second compound 0.316 µM, first compound 0.0316 µM
[14] = second compound 0.316 µM, first compound 0.1 µM
[15] = second compound 0.316 µM, first compound 0.316 µM
[16] = second compound 0.316 µM, first compound 1 µM
[17] = second compound 0.316 µM, first compound 3.16 µM
[18] = second compound 0.316 µM, first compound 10 µM
[19] = second compound 1 µM, first compound 0.0316 µM
[20] = second compound 1 µM, first compound 0.1 µM
[21] = second compound 1 µM, first compound 0.316 µM
[22] = second compound 1 µM, first compound 1 µM
[23] = second compound 1 µM, first compound 3.16 µM
[24] = second compound 1 µM, first compound 10 µM
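Note: spheroids exposed to the agents for 7 days before readout.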
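Throughout, for viability, T/C: luminescence viability as percent of DMSO vehicle control wells.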

`CCC(CC)c1cc(NC2CCC(N)C2)n2nccc2n1` (stereo unspecified) + C=CC(=O)N1CCN(c2nc(OCC3CCCN3C)nc3c(F)c(-c4nc(N)cc(C)c4C(F)(F)F)c(Cl)cc23)C(C)C1 showed an IC50 (second compound 0.00316 µM) of 4.14 µM, an IC50 (second compound 0.01 µM) of 4.69 µM and an IC50 (second compound 0.0316 µM) of 5.54 µM. For the same compound, the IC50 (second compound 0.1 µM) was 4.92 µM, the IC50 (second compound 0.316 µM) was 4.66 µM and the IC50 (second compound 1 µM) was 4.54 µM. For the same compound, the viability, T/C (second compound 0.00316 µM, first compound 0.0316 µM) was 99.6%, the viability, T/C (second compound 0.00316 µM, first compound 0.1 µM) was 100% and the viability, T/C (second compound 0.00316 µM, first compound 0.316 µM) was 104%. For the same compound, the viability, T/C (second compound 0.00316 µM, first compound 1 µM) was 95.2%, the viability, T/C (second compound 0.00316 µM, first compound 3.16 µM) was 64.2% and the viability, T/C (second compound 0.00316 µM, first compound 10 µM) was 3.95%. It also gave a viability, T/C (second compound 0.01 µM, first compound 0.0316 µM) of 102%, a viability, T/C (second compound 0.01 µM, first compound 0.1 µM) of 108% and a viability, T/C (second compound 0.01 µM, first compound 0.316 µM) of 106%. It also gave a viability, T/C (second compound 0.01 µM, first compound 1 µM) of 102%, a viability, T/C (second compound 0.01 µM, first compound 3.16 µM) of 73.5% and a viability, T/C (second compound 0.01 µM, first compound 10 µM) of 5.05%. The viability, T/C [1] was 100%, the viability, T/C [2] was 115% and the viability, T/C [3] was 100%. For the same compound, the viability, T/C [4] was 103%, the viability, T/C [5] was 92.5% and the viability, T/C [6] was 5.29%. For the same compound, the viability, T/C [7] was 102%, the viability, T/C [8] was 113% and the viability, T/C [9] was 102%. It also gave a viability, T/C [10] of 107%, a viability, T/C [11] of 79.1% and a viability, T/C [12] of 3.6%. For the same compound, the viability, T/C [13] was 97%, the viability, T/C [14] was 97.2% and the viability, T/C [15] was 104%. For the same compound, the viability, T/C [16] was 109%, the viability, T/C [17] was 73.3% and the viability, T/C [18] was 4.47%. The viability, T/C [19] was 107%, the viability, T/C [20] was 105% and the viability, T/C [21] was 95.8%. It also gave a viability, T/C [22] of 102%, a viability, T/C [23] of 70.5% and a viability, T/C [24] of 5.01%.
`CC1(C)CCC(Nc2ncc(C(F)(F)F)c(-c3c[nH]c4c(P(C)(C)=O)c(C#N)ccc34)n2)CN1` (stereo unspecified) + CCn1c(-c2cccnc2C(C)OC)c2c3cc(ccc31)N1CCOC(CC(NC(=O)C(C(C)C)N(C)C(=O)C3(F)CCN(C(=O)C#CC(C)(C)N(C)C)CC3)C(=O)N3CCCC(N3)C(=O)OCC(C)(C)C2)C1 was tested, and the IC50 (second compound 0.000949 µM) was over 0.3 µM, the IC50 (second compound 0.003 µM) was over 0.3 µM and the IC50 (second compound 0.00949 µM) was over 0.3 µM. It also gave an IC50 (second compound 0.03 µM) of over 0.3 µM, an IC50 (second compound 0.0949 µM) of over 0.3 µM and an IC50 (second compound 0.3 µM) of over 0.3 µM. It also gave a viability, T/C (second compound 0.000949 µM, first compound 0.000949 µM) of 105%, a viability, T/C (second compound 0.000949 µM, first compound 0.003 µM) of 99.2% and a viability, T/C (second compound 0.000949 µM, first compound 0.00949 µM) of 102%. For the same compound, the viability, T/C (second compound 0.000949 µM, first compound 0.03 µM) was 98.3%, the viability, T/C (second compound 0.000949 µM, first compound 0.0949 µM) was 108% and the viability, T/C (second compound 0.000949 µM, first compound 0.3 µM) was 99.1%. It also gave a viability, T/C (second compound 0.003 µM, first compound 0.000949 µM) of 110%, a viability, T/C (second compound 0.003 µM, first compound 0.003 µM) of 99.3% and a viability, T/C (second compound 0.003 µM, first compound 0.00949 µM) of 98%. It also gave a viability, T/C (second compound 0.003 µM, first compound 0.03 µM) of 92.6%, a viability, T/C (second compound 0.003 µM, first compound 0.0949 µM) of 107% and a viability, T/C (second compound 0.003 µM, first compound 0.3 µM) of 89.1%. The viability, T/C (second compound 0.00949 µM, first compound 0.000949 µM) was 97.5%, the viability, T/C (second compound 0.00949 µM, first compound 0.003 µM) was 102% and the viability, T/C (second compound 0.00949 µM, first compound 0.00949 µM) was 87.3%. The viability, T/C (second compound 0.00949 µM, first compound 0.03 µM) was 105%, the viability, T/C (second compound 0.00949 µM, first compound 0.0949 µM) was 102% and the viability, T/C (second compound 0.00949 µM, first compound 0.3 µM) was 104%. For the same compound, the viability, T/C (second compound 0.03 µM, first compound 0.000949 µM) was 98.5%, the viability, T/C (second compound 0.03 µM, first compound 0.003 µM) was 110% and the viability, T/C (second compound 0.03 µM, first compound 0.00949 µM) was 95.9%. The viability, T/C (second compound 0.03 µM, first compound 0.03 µM) was 98.9%, the viability, T/C (second compound 0.03 µM, first compound 0.0949 µM) was 100% and the viability, T/C (second compound 0.03 µM, first compound 0.3 µM) was 91.3%. The viability, T/C (second compound 0.0949 µM, first compound 0.000949 µM) was 86.8%, the viability, T/C (second compound 0.0949 µM, first compound 0.003 µM) was 99.5% and the viability, T/C (second compound 0.0949 µM, first compound 0.00949 µM) was 103%. The viability, T/C (second compound 0.0949 µM, first compound 0.03 µM) was 95.2%, the viability, T/C (second compound 0.0949 µM, first compound 0.0949 µM) was 103% and the viability, T/C (second compound 0.0949 µM, first compound 0.3 µM) was 107%. The viability, T/C (second compound 0.3 µM, first compound 0.000949 µM) was 96.8%, the viability, T/C (second compound 0.3 µM, first compound 0.003 µM) was 102% and the viability, T/C (second compound 0.3 µM, first compound 0.00949 µM) was 94.1%. For the same compound, the viability, T/C (second compound 0.3 µM, first compound 0.03 µM) was 98.5%, the viability, T/C (second compound 0.3 µM, first compound 0.0949 µM) was 101% and the viability, T/C (second compound 0.3 µM, first compound 0.3 µM) was 94.9%.
`CC(C)NCC(C(=O)N1CCN(c2ncnc3c2C(C)CC3O)CC1)c1ccc(Cl)cc1` (stereo unspecified) + C#Cc1c(F)ccc2cc(O)cc(-c3ncc4c(N5CC6CCC(C5)N6)nc(OCC56CCCN5CC(F)C6)nc4c3F)c12 gave an IC50 (second compound 0.0316 µM) of over 10 µM, an IC50 (second compound 0.1 µM) of over 10 µM and an IC50 (second compound 0.316 µM) of over 10 µM. For the same compound, the IC50 (second compound 1 µM) was over 10 µM, the IC50 (second compound 3.16 µM) was over 10 µM and the IC50 (second compound 10 µM) was under 0.0316 µM. For the same compound, the viability, T/C [1] was 98.4%, the viability, T/C [2] was 100% and the viability, T/C [3] was 89.4%. For the same compound, the viability, T/C [4] was 102%, the viability, T/C [5] was 96.7% and the viability, T/C [6] was 87.5%. For the same compound, the viability, T/C [7] was 84.4%, the viability, T/C [8] was 105% and the viability, T/C [9] was 94.9%. It also gave a viability, T/C [10] of 96.6%, a viability, T/C [11] of 102% and a viability, T/C [12] of 95%. It also gave a viability, T/C [13] of 94%, a viability, T/C [14] of 95.5% and a viability, T/C [15] of 92.6%. For the same compound, the viability, T/C [16] was 82.4%, the viability, T/C [17] was 83.7% and the viability, T/C [18] was 65.1%. It also gave a viability, T/C [19] of 79.9%, a viability, T/C [20] of 88.1% and a viability, T/C [21] of 78.3%. The viability, T/C [22] was 81%, the viability, T/C [23] was 81.1% and the viability, T/C [24] was 75.5%. For the same compound, the viability, T/C (second compound 3.16 µM, first compound 0.0316 µM) was 61.5%, the viability, T/C (second compound 3.16 µM, first compound 0.1 µM) was 73.6% and the viability, T/C (second compound 3.16 µM, first compound 0.316 µM) was 66.9%. The viability, T/C (second compound 3.16 µM, first compound 1 µM) was 87%, the viability, T/C (second compound 3.16 µM, first compound 3.16 µM) was 63% and the viability, T/C (second compound 3.16 µM, first compound 10 µM) was 53.2%. For the same compound, the viability, T/C (second compound 10 µM, first compound 0.0316 µM) was 43.3%, the viability, T/C (second compound 10 µM, first compound 0.1 µM) was 39.6% and the viability, T/C (second compound 10 µM, first compound 0.316 µM) was 43.9%. It also gave a viability, T/C (second compound 10 µM, first compound 1 µM) of 47%, a viability, T/C (second compound 10 µM, first compound 3.16 µM) of 50.6% and a viability, T/C (second compound 10 µM, first compound 10 µM) of 39.3%.
